# Experimental data published in ChEMBL document CHEMBL4732026, “Benzimidazole-1,2,3-triazole hybrid molecules: synthesis and study of their interaction with G-quadruplex DNA” (RSC Med Chem, 2021).
# Active and inactive are the calls of the source. The rule behind the calls is not given here.
# How the values were obtained:
# Quadruplex DNA [1] = test: Binding affinity to c-Myc G-quadruplex DNA (unknown origin) assessed as dissociation constant incubated for 5 mins by UV- vis spectrophotometric analysis; type: nucleic-acid assay
# dsDNA [2] = test: Binding affinity to double strand DNA (unknown origin) assessed as dissociation constant incubated for 5 mins by UV- vis spectrophotometric analysis; type: nucleic-acid assay
# PC-3 [3] = test: Induction of cell cycle arrest in human PC3 cells assessed as accumulation at Sub G1 phase at 50 uM after 48 hrs by propidium iodide staining based flow cytometry (reference value: 0.1%); type: functional
# PC-3 [4] = test: Induction of cell cycle arrest in human PC3 cells assessed as accumulation at Sub G1 phase at 55 uM after 48 hrs by propidium iodide staining based flow cytometry (reference value: 0.1%); type: functional
# PC-3 [5] = test: Induction of cell cycle arrest in human PC3 cells assessed as accumulation at S phase at 55 uM after 48 hrs by propidium iodide staining based flow cytometry (reference value: 1.8%); type: functional
# PC-3 [6] = test: Induction of cell cycle arrest in human PC3 cells assessed as accumulation at G2/M phase at 55 uM after 48 hrs by propidium iodide staining based flow cytometry (reference value: 1.4%); type: functional
# PC-3 [7] = test: Induction of apoptosis in human PC-3 cells assessed as apoptotic cells at 50 uM incubated for 48 hrs by AnnexinV based flow cytometric analysis (reference value: 10.43%); type: functional
# PC-3 [8] = test: Induction of apoptosis in human PC-3 cells assessed as early apoptic cells at 55 uM after 48 hrs by Annexin V based flow cytometric analysis (reference value: 0.40%); type: functional
# CHO-K1 = test: Induction of apoptosis in CHO-K1 cells assessed as late apoptic cells at 65 uM after 48 hrs by Annexin V based flow cytometric analysis (reference value: 1.01%); type: cell-based, Cricetulus griseus; details: chinese hamster, cho-k1, 48 h
# Quadruplex DNA [9] = test: Binding affinity to c-Myc G-quadruplex DNA (unknown origin) assessed as hypsochromic shift at 8.5 uM incubated for 5 mins by UV- vis spectrophotometric analysis; type: nucleic-acid assay
# dsDNA [10] = test: Binding affinity to double strand DNA (unknown origin) assessed as hyperchromicity at 8.5 uM incubated for 5 mins by UV- vis spectrophotometric analysis; type: nucleic-acid assay
# Quadruplex DNA [11] = test: Stabilization of c-Myc G-quadruplex DNA (unknown origin) assessed as change in melting temperature at 8.5 uM incubated for 5 mins by UV-visible thermal denaturation study; type: nucleic-acid assay
# dsDNA [12] = test: Stabilization of dsDNA (unknown origin) assessed as change in melting temperature at 8.5 uM incubated for 5 mins by UV-visible thermal denaturation study; type: nucleic-acid assay
# dsDNA [13] = test: Binding affinity to double strand DNA (unknown origin) assessed as increase in intensity of positive and negative peaks at 10 to 40 uM by circular dichroism spectra; type: nucleic-acid assay; details: dose 10-40 µM
smiles,measurement,setting,value
O=C(Cn1cc(CSc2nc3cc(OC(F)F)ccc3[nH]2)nn1)NC1CCCCC1,Kd,Quadruplex DNA [1],113 µM
same,Kd,dsDNA [2],175 µM
same,Activity,PC-3 [3],0.1%
same,Activity,PC-3 [4],0.8%
same,Activity,PC-3 [5],7.9%
same,Activity,PC-3 [6],11.2%
same,Activity,PC-3 [7],12.72%
same,Activity,PC-3 [8],2.2%
same,Activity,CHO-K1,2.16%
same,Activity,Quadruplex DNA [9],5 nm
same,Activity,dsDNA [10],13.1%
same,ΔTm,Quadruplex DNA [11],5 °C
same,ΔTm,dsDNA [12],0 °C
same,Activity,dsDNA [13],inactive
